Counter-ions that a name gives are not always drawn.
Each compound was assayed against T1, TLR7/NFKb HEK cells (Homo sapiens, UniProt Q9NYK1) (assay: HEK Cell Assay (TLR7/NFKb reporter, Steady-Glo luciferase readout)). Conditions: 30 min compound preincubation, then R*48 agonist for 5 hours, read-out: Potency.
T1 construct: expressed in transfected cells; host or cells: HEK cells (TLR7/NFKb reporter line)
T1 sequence (Q9NYK1 27-1049): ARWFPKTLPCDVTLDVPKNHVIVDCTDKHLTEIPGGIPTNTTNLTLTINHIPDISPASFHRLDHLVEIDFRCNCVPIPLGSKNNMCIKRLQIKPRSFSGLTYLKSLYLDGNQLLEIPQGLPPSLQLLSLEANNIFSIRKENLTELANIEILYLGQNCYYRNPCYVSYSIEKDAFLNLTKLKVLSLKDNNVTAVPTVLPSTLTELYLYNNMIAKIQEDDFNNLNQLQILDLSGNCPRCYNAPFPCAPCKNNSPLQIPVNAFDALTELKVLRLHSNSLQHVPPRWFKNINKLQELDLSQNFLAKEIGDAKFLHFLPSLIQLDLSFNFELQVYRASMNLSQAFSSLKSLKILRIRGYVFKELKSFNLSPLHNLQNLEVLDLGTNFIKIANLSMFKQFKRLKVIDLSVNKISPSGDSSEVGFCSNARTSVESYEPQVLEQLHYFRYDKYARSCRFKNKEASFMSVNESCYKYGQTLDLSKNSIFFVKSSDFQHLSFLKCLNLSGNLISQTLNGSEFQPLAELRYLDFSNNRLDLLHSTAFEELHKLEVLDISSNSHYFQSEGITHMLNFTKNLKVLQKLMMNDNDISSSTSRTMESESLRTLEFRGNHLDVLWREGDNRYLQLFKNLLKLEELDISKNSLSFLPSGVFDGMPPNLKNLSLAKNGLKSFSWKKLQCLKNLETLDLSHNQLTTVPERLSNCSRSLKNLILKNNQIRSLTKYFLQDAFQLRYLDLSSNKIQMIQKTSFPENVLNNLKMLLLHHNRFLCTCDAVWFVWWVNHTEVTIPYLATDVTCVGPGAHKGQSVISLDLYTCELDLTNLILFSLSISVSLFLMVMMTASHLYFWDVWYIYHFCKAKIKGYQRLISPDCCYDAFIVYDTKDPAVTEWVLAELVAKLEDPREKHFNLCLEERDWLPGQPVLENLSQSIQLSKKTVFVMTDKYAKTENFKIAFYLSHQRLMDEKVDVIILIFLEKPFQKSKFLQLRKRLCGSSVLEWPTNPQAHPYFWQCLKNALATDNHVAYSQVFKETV
Type: cell-based
How it was run: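 Steady-Glo luminescence after 5 h stimulation with R*48 agonist, following 30 min compound preincubation. Assay run in HEK cells carrying a TLR7/NFKb luciferase reporter, plated at 5000 cells/well and grown 24 h at 37° C (10% CO2) before treatment.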

Row | SMILES | IC50
1 | C[C@@H]1CN(c2ccnc3nccnc23)C[C@H](CN2CCN(C)[C@@H](C)C2)O1 [Compound 53, (2S,6R)-2-(((S)-3,4-dimethylpiperazin-1-yl)methyl)-6-methyl-4-(pyrido[2,3-b]pyrazin-8-yl)morpholine] | < 1 µM
2 | C[C@@H]1CN(c2ccnc3nccnc23)C[C@H](CN2CCN(C)C(C)(C)C2)O1 [Compound 54, (2R,6S)-2-methyl-4-(pyrido[2,3-b]pyrazin-8-yl)-6-((3,3,4-trimethylpiperazin-1-yl)methyl)morpholine] | < 1 µM
3 | C[C@@H]1CN(c2ccnc3nccnc23)C[C@H](CN2CCC(N(C)C)CC2)O1 [Compound 55, N,N-dimethyl-1-(((2S,6R)-6-methyl-4-(pyrido[2,3-b]pyrazin-8-yl)morpholin-2-yl)methyl)piperidin-4-amine] | < 1 µM
4 | C[C@@H]1CN(c2ccnc3nccnc23)C[C@H](CN2CCC(N3CCCC3)CC2)O1 [Compound 56, (2R,6S)-2-methyl-4-(pyrido[2,3-b]pyrazin-8-yl)-6-((4-(pyrrolidin-1-yl)piperidin-1-yl)methyl)morpholine] | 1 to 10 µM
5 | C[C@@H]1CN(c2ccc(C#N)c3nccnc23)C[C@H](CN2CCC(N3CCCC3)CC2)O1 [Compound 57, 8-((2R,6S)-2-methyl-6-((4-(pyrrolidin-1-yl)piperidin-1-yl)methyl)morpholino)quinoxaline-5-carbonitrile] | < 1 µM
6 | C[C@@H]1CN(c2ccnc3nccnc23)C[C@H](CN2CCC(N3CCCCC3)CC2)O1 [Compound 58, (2S,6R)-2-(1,4′-bipiperidin-1′-ylmethyl)-6-methyl-4-(pyrido[2,3-b]pyrazin-8-yl)morpholine] | < 1 µM
7 | C[C@@H]1CN(c2ccc(C#N)c3nccnc23)C[C@H](CN2CCC(N3CCCCC3)CC2)O1 [Compound 59, 8-((2S,6R)-2-(1,4′-bipiperidin-1′-ylmethyl)-6-methylmorpholino)quinoxaline-5-carbonitrile] | < 1 µM
8 | C[C@@H]1CN(c2ccnc3nccnc23)C[C@H](CN2CCC(N3CCOCC3)CC2)O1 [Compound 60, (2R,6S)-2-methyl-6-((4-morpholinopiperidin-1-yl)methyl)-4-(pyrido[2,3-b]pyrazin-8-yl)morpholine] | 1 to 10 µM
9 | CC(C)C(=O)NC1CCN(C[C@H]2CN(c3ccnc4nccnc34)C[C@@H](C)O2)CC1 [Compound 61, N-(1-(((2S,6R)-6-methyl-4-(pyrido[2,3-b]pyrazin-8-yl)morpholin-2-yl)methyl)piperidin-4-yl)isobutyramide] | 1 to 10 µM
10 | CCNC(=O)C1CCN(C[C@H]2CN(c3ccnc4nccnc34)C[C@@H](C)O2)CC1 [Compound 62, N-ethyl-1-(((2S,6R)-6-methyl-4-(pyrido[2,3-b]pyrazin-8-yl)morpholin-2-yl)methyl)piperidine-4-carboxamide] | 1 to 10 µM
11 | C[C@@H]1CN(c2ccnc3nccnc23)C[C@H](C(=O)N2CC(N)C2)O1 [Compound 63, (3-aminoazetidin-1-yl)((2R,6R)-6-methyl-4-(pyrido[2,3-b]pyrazin-8-yl)morpholin-2-yl)methanone] | > 10 µM
12 | C[C@@H]1CN(c2ccnc3nccnc23)C[C@H](C(=O)N[C@@H]2CCCNC2)O1 [Compound 64, (2R,6R)-6-methyl-N—((R)-piperidin-3-yl)-4-(pyrido[2,3-b]pyrazin-8-yl)morpholine-2-carboxamide] | 1 to 10 µM
13 | C[C@@H]1CN(c2ccnc3nccnc23)C[C@H](C(=O)NC2CCN(C)CC2)O1 [Compound 65, (2R,6R)-6-methyl-N-(1-methylpiperidin-4-yl)-4-(pyrido[2,3-b]pyrazin-8-yl)morpholine-2-carboxamide] | < 1 µM
14 | C[C@H]1C[C@@H](N)CN(c2ccc(C(F)(F)F)c3ncccc23)C1 [Compound 66, (3R,5S)-5-methyl-1-[8-(trifluoromethyl)quinolin-5-yl]piperidin-3-amine] | < 1 µM
15 | COCCN[C@@H]1C[C@H](C)CN(c2ccc(OC)c3nccnc23)C1 [Compound 67, (3R,5S)—N-(2-methoxyethyl)-1-(8-methoxyquinoxalin-5-yl)-5-methylpiperidin-3-amine] | < 1 µM
16 | C[C@H]1C[C@@H](N)CN(c2ccc(C(F)F)c3ncccc23)C1 [Compound 68, (3R,5S)-1-[8-(difluoromethyl)quinolin-5-yl]-5-methylpiperidin-3-amine] | < 1 µM

Row | SMILES | IC50
17 | C[C@H]1C[C@@H](N)CN(c2ccc(C#N)c3ncncc23)C1 [Compound 74, 5-((3R,5S)-3-Amino-5-methyl-piperidin-1-yl)-quinazoline-8-carbonitrile] | < 1 µM
18 | C[C@H]1C[C@@H](N)CN(c2ccc(C(F)(F)F)c3nccnc23)C1 [Compound 77, (3R,5S)-5-methyl-1-[8-(trifluoromethyl)quinoxalin-5-yl]piperidin-3-amine] | < 1 µM
19 | C[C@H]1C[C@@H](N)CN(c2ccc(Cl)c3ncccc23)C1 [Compound 78, (3R,5S)-1-(8-chloroquinolin-5-yl)-5-methylpiperidin-3-amine] | < 1 µM
20 | CC(O)C(=O)N[C@@H]1C[C@H](C)CN(c2ccc(C(F)F)c3nccnc23)C1 (stereo partly drawn) [Compound 79, N-[(3R,5S)-1-[8-(difluoromethyl)quinoxalin-5-yl]-5-methylpiperidin-3-yl]-2-hydroxypropanamide] | 1 to 10 µM
21 | CC1(C)C[C@@H](N)CN(c2ccnc3nccnc23)C1 [Compound 80, (R)-5,5-dimethyl-1-(pyrido[2,3-b]pyrazin-8-yl)piperidin-3-amine] | 1 to 10 µM
22 | C[C@H]1C[C@@H](O)CN(c2ccc(C#N)c3nccnc23)C1 [Compound 81, 8-[(3R,5S)-3-hydroxy-5-methylpiperidin-1-yl]quinoxaline-5-carbonitrile] | < 1 µM
23 | CC(C)[C@H](O)C(=O)N[C@@H]1C[C@H](C(F)(F)F)CN(c2ccnc3nccnc23)C1 [Compound 89, (2S)-2-hydroxy-3-methyl-N-[(3R,5S)-1-[pyrido[2,3-b]pyrazin-8-yl]-5-(trifluoromethyl)piperidin-3-yl]butanamide hydrochloride] | > 10 µM
24 | CC(C)[C@H](O)C(=O)N[C@H]1C[C@@H](C(F)(F)F)CN(c2ccnc3nccnc23)C1 [Compound 90, (2S)-2-hydroxy-3-methyl-N-[(3S,5R)-1-[pyrido[2,3-b]pyrazin-8-yl]-5-(trifluoromethyl)piperidin-3-yl]butanamide hydrochloride] | > 10 µM
25 | C[C@H]1C[C@@H](NC(=O)CO)CN(c2ccc(C#N)c3nccnc23)C1 [Compound 97, N-[(3R,5S)-1-(8-cyanoquinoxalin-5-yl)-5-methylpiperidin-3-yl]-2-hydroxyacetamide] | < 1 µM
26 | CCN(C)[C@H](C)C(=O)N[C@@H]1C[C@H](C)CN(c2ccc(C#N)c3nccnc23)C1 [Compound 98, (2R)—N-[(3R,5S)-1-(8-cyanoquinoxalin-5-yl)-5-methylpiperidin-3-yl]-2-[ethyl(methyl)amino]propanamide] | < 1 µM
27 | CCN(C)[C@@H](C)C(=O)N[C@@H]1C[C@H](C)CN(c2ccc(C#N)c3nccnc23)C1 [Compound 99, (2S)—N-[(3R,5S)-1-(8-cyanoquinoxalin-5-yl)-5-methylpiperidin-3-yl]-2-[ethyl(methyl)amino]propanamide] | < 1 µM
28 | CCN(C)[C@H](C)C(=O)N[C@@H]1C[C@H](C)CN(c2ccnc3nccnc23)C1 [Compound 100, (2R)-2-[ethyl(methyl)amino]-N-[(3R,5S)-5-methyl-1-[pyrido[2,3-b]pyrazin-8-yl]piperidin-3-yl]propanamide] | 1 to 10 µM
29 | CCN(C)[C@@H](C)C(=O)N[C@@H]1C[C@H](C)CN(c2ccnc3nccnc23)C1 [Compound 101, (2S)-2-[ethyl(methyl)amino]-N-[(3R,5S)-5-methyl-1-[pyrido[2,3-b]pyrazin-8-yl]piperidin-3-yl]propanamide] | 1 to 10 µM
30 | CC(C)[C@@H](N)C(=O)N[C@@H]1C[C@H](C)CN(c2ccc(C#N)c3nccnc23)C1 [Compound 102, (2R)-2-amino-N-[(3R,5S)-1-(8-cyanoquinoxalin-5-yl)-5-methylpiperidin-3-yl]-3-methylbutanamide] | < 1 µM
31 | CC(C)[C@H](N)C(=O)N[C@@H]1C[C@H](C)CN(c2ccc(C#N)c3nccnc23)C1 [Compound 103, (2S)-2-amino-N-[(3R,5S)-1-(8-cyanoquinoxalin-5-yl)-5-methylpiperidin-3-yl]-3-methylbutanamide] | < 1 µM

— patent publication US10947213B1 (Merck Patent GmbH, priority 2015, dated 2021)
